Data published in PubChem BioAssay AID1963850 (Molecular Pharmacology Branch, DTP, NCI, 2024).

Test system: 192522-019-R-J2-PDC complex tumor spheroid viability
Experiment: Anticancer human tumor 192522-019-R-J2-PDC patient-derived colon adenocarcinoma cell line growth inhibition [POLQ]
Settings: for IC50: curve of first compound; for viability, T/C: stronger effect = lower value
Method in brief: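 Patient-derived tumour cells were co-cultured with HUVEC and mesenchymal stem cells as multicellular spheroids at 37 °C. They were treated with POLQ inhibitors (novobiocin, ART-558, RP6685) alone or combined with other agents. Top concentrations were at or near clinical Cmax (otherwise 10 microM; SN-38 at 1 microM), decreasing in half-log steps.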

[1] = second compound 0.0316 µM, first compound 0.0316 µM
[2] = second compound 0.0316 µM, first compound 0.1 µM
[3] = second compound 0.0316 µM, first compound 0.316 µM
[4] = second compound 0.0316 µM, first compound 1 µM
[5] = second compound 0.0316 µM, first compound 3.16 µM
[6] = second compound 0.0316 µM, first compound 10 µM
[7] = second compound 0.1 µM, first compound 0.0316 µM
[8] = second compound 0.1 µM, first compound 0.1 µM
[9] = second compound 0.1 µM, first compound 0.316 µM
[10] = second compound 0.1 µM, first compound 1 µM
[11] = second compound 0.1 µM, first compound 3.16 µM
[12] = second compound 0.1 µM, first compound 10 µM
[13] = second compound 0.316 µM, first compound 0.0316 µM
[14] = second compound 0.316 µM, first compound 0.1 µM
[15] = second compound 0.316 µM, first compound 0.316 µM
[16] = second compound 0.316 µM, first compound 1 µM
[17] = second compound 0.316 µM, first compound 3.16 µM
[18] = second compound 0.316 µM, first compound 10 µM
[19] = second compound 1 µM, first compound 0.0316 µM
[20] = second compound 1 µM, first compound 0.1 µM
[21] = second compound 1 µM, first compound 0.316 µM
[22] = second compound 1 µM, first compound 1 µM
[23] = second compound 1 µM, first compound 3.16 µM
[24] = second compound 1 µM, first compound 10 µM
[25] = second compound 3.16 µM, first compound 0.0316 µM
[26] = second compound 3.16 µM, first compound 0.1 µM
[27] = second compound 3.16 µM, first compound 0.316 µM
[28] = second compound 3.16 µM, first compound 1 µM
[29] = second compound 3.16 µM, first compound 3.16 µM
[30] = second compound 3.16 µM, first compound 10 µM
[31] = second compound 10 µM, first compound 0.0316 µM
[32] = second compound 10 µM, first compound 0.1 µM
[33] = second compound 10 µM, first compound 0.316 µM
[34] = second compound 10 µM, first compound 1 µM
[35] = second compound 10 µM, first compound 3.16 µM
[36] = second compound 10 µM, first compound 10 µM
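Also: spheroids exposed to drugs for seven days before reading.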
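For viability, T/C in this document: 100% = DMSO vehicle control viability in luminescence.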

Work on `O=c1[nH]cc(F)c(=O)[nH]1` + COC1C(OC(N)=O)C(O)C(Oc2ccc3c(O)c(NC(=O)c4ccc(O)c(CC=C(C)C)c4)c(=O)oc3c2C)OC1(C)C yielded an IC50 (second compound 0.0316 µM) of over 10 µM, an IC50 (second compound 0.1 µM) of over 10 µM and an IC50 (second compound 0.316 µM) of over 10 µM. The IC50 (second compound 1 µM) was over 10 µM, the IC50 (second compound 3.16 µM) was over 10 µM and the IC50 (second compound 10 µM) was over 10 µM. It also gave a viability, T/C [1] of 99.2%, a viability, T/C [2] of 75.7% and a viability, T/C [3] of 78.8%. For the same compound, the viability, T/C [4] was 72.7%, the viability, T/C [5] was 73.8% and the viability, T/C [6] was 64.2%. It also gave a viability, T/C [7] of 91.8%, a viability, T/C [8] of 80.3% and a viability, T/C [9] of 77.4%. The viability, T/C [10] was 71.1%, the viability, T/C [11] was 71% and the viability, T/C [12] was 75.8%. It also gave a viability, T/C [13] of 91%, a viability, T/C [14] of 82% and a viability, T/C [15] of 84.8%. It also gave a viability, T/C [16] of 73.1%, a viability, T/C [17] of 71.1% and a viability, T/C [18] of 68.7%. For the same compound, the viability, T/C [19] was 89.6%, the viability, T/C [20] was 78.7% and the viability, T/C [21] was 74.7%. The viability, T/C [22] was 77.1%, the viability, T/C [23] was 70.7% and the viability, T/C [24] was 70.7%. The viability, T/C [25] was 92.5%, the viability, T/C [26] was 86.5% and the viability, T/C [27] was 78.1%. It also gave a viability, T/C [28] of 72.9%, a viability, T/C [29] of 74.8% and a viability, T/C [30] of 73.3%. It also gave a viability, T/C [31] of 92.8%, a viability, T/C [32] of 76.3% and a viability, T/C [33] of 82.7%. For the same compound, the viability, T/C [34] was 73.1%, the viability, T/C [35] was 77.6% and the viability, T/C [36] was 83.1%.

In the case of `O=C(Nc1ccc(O)c(NS(=O)(=O)c2ccc(F)cc2)c1)c1ccc(-c2ccccc2)cc1` + Cc1cccc(N(C)C(=O)C2C(O)CCN2c2nc(C)cc(C(F)(F)F)c2C#N)c1, the IC50 (second compound 0.0316 µM) is reported as over 10 µM, the IC50 (second compound 0.1 µM) is reported as over 10 µM and the IC50 (second compound 0.316 µM) is reported as over 10 µM. For the same compound, the IC50 (second compound 1 µM) was over 10 µM, the IC50 (second compound 3.16 µM) was over 10 µM and the IC50 (second compound 10 µM) was over 10 µM. It also gave a viability, T/C [1] of 94.8%, a viability, T/C [2] of 97.5% and a viability, T/C [3] of 98.2%. It also gave a viability, T/C [4] of 96.3%, a viability, T/C [5] of 106% and a viability, T/C [6] of 109%. It also gave a viability, T/C [7] of 101%, a viability, T/C [8] of 98.5% and a viability, T/C [9] of 99.7%. It also gave a viability, T/C [10] of 90.4%, a viability, T/C [11] of 101% and a viability, T/C [12] of 94.8%. It also gave a viability, T/C [13] of 96.9%, a viability, T/C [14] of 96.4% and a viability, T/C [15] of 93.5%. It also gave a viability, T/C [16] of 101%, a viability, T/C [17] of 103% and a viability, T/C [18] of 101%. It also gave a viability, T/C [19] of 113%, a viability, T/C [20] of 106% and a viability, T/C [21] of 101%. It also gave a viability, T/C [22] of 102%, a viability, T/C [23] of 98.9% and a viability, T/C [24] of 103%. For the same compound, the viability, T/C [25] was 103%, the viability, T/C [26] was 104% and the viability, T/C [27] was 106%. The viability, T/C [28] was 100%, the viability, T/C [29] was 108% and the viability, T/C [30] was 105%. It also gave a viability, T/C [31] of 114%, a viability, T/C [32] of 100% and a viability, T/C [33] of 106%. The viability, T/C [34] was 97.9%, the viability, T/C [35] was 99.8% and the viability, T/C [36] was 98.5%.

`COc1cc2cc(C(=O)CCC(=O)O)sc2cc1OC` + Nc1ccc(C#CCN(C(=O)Cc2ncc(C(F)(F)F)cc2C(F)(F)F)c2ccc(F)cc2)nn1 showed an IC50 (second compound 0.0316 µM) of over 10 µM, an IC50 (second compound 0.1 µM) of over 10 µM and an IC50 (second compound 0.316 µM) of over 10 µM. For the same compound, the IC50 (second compound 1 µM) was over 10 µM, the IC50 (second compound 3.16 µM) was over 10 µM and the IC50 (second compound 10 µM) was over 10 µM. It also gave a viability, T/C [1] of 102%, a viability, T/C [2] of 105% and a viability, T/C [3] of 95.4%. It also gave a viability, T/C [4] of 99.6%, a viability, T/C [5] of 105% and a viability, T/C [6] of 89%. For the same compound, the viability, T/C [7] was 102%, the viability, T/C [8] was 92.1% and the viability, T/C [9] was 97.9%. For the same compound, the viability, T/C [10] was 101%, the viability, T/C [11] was 99.4% and the viability, T/C [12] was 87.3%. The viability, T/C [13] was 102%, the viability, T/C [14] was 102% and the viability, T/C [15] was 105%. For the same compound, the viability, T/C [16] was 100%, the viability, T/C [17] was 93.8% and the viability, T/C [18] was 91.8%. It also gave a viability, T/C [19] of 102%, a viability, T/C [20] of 98.5% and a viability, T/C [21] of 100%. The viability, T/C [22] was 98.8%, the viability, T/C [23] was 104% and the viability, T/C [24] was 103%. It also gave a viability, T/C [25] of 103%, a viability, T/C [26] of 103% and a viability, T/C [27] of 104%. It also gave a viability, T/C [28] of 93.3%, a viability, T/C [29] of 103% and a viability, T/C [30] of 103%. For the same compound, the viability, T/C [31] was 109%, the viability, T/C [32] was 97.4% and the viability, T/C [33] was 108%. The viability, T/C [34] was 103%, the viability, T/C [35] was 114% and the viability, T/C [36] was 102%.
